Measured values published in PubChem BioAssay (NCI).
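96-well plates; 48 h exposure; 5 concentrations. Endpoints by linear interpolation between flanking doses. Not reached: highest tested concentration assigned. TGI: total growth inhibition.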

Columns and labels:
Test in all cases: NCI tumour cell line growth inhibition, 48 h
SR leukemia = system: SR leukemia
P388/ADR leukemia = system: P388/ADR leukemia
HOP-18 NSCLC = system: HOP-18 NSCLC
RXF-631 renal = system: RXF-631 renal
SNB-78 CNS = system: SNB-78 CNS
KM20L2 colon = system: KM20L2 colon
DMS 114 small cell lung = system: DMS 114 small cell lung
DMS 273 small cell lung = system: DMS 273 small cell lung
M19-MEL melanoma = system: M19-MEL melanoma
SN12K1 renal = system: SN12K1 renal
LXFL 529 NSCLC = system: LXFL 529 NSCLC
DLD-1 colon = system: DLD-1 colon
P388 leukemia = system: P388 leukemia
XF 498 CNS = system: XF 498 CNS

## C=C1CC(COc2ccc3c(C)c(Cl)c(=O)oc3c2)(c2ccccc2)OC1=O (centres undefined)
SR leukemia
  TGI: > 21.5 µM

## COc1ccc2c(c1)OCC1=C2Oc2ccccc2C1
SR leukemia
  TGI: > 100 µM

## ClCCN(CC#CCCCC#CCN(CCCl)CCCl)CCCl
P388/ADR leukemia
  TGI: 9.09 µM
HOP-18 NSCLC
  TGI: 44.5 µM
RXF-631 renal
  TGI: 23.8 µM
SNB-78 CNS
  TGI: 57.5 µM
KM20L2 colon
  TGI: 27.7 µM
DMS 114 small cell lung
  TGI: 15.8 µM
DMS 273 small cell lung
  TGI: 16.6 µM
M19-MEL melanoma
  TGI: 29.5 µM
SN12K1 renal
  TGI: 25.3 µM
LXFL 529 NSCLC
  TGI: 28.3 µM
SR leukemia
  TGI: 7.66 µM
DLD-1 colon
  TGI: 35.7 µM
P388 leukemia
  TGI: 9.73 µM

## O=[N+]([O-])c1ccc(CSc2c3ccccc3nc3ccccc23)cc1
SR leukemia
  TGI: > 27.1 µM

## Cc1ccc([N+]2=NC(c3ccc([N+](=O)[O-])cc3)=NN(c3ccccc3)C2)cc1
SNB-78 CNS
  TGI: > 100 µM
KM20L2 colon
  TGI: > 100 µM
DMS 114 small cell lung
  TGI: > 100 µM
DMS 273 small cell lung
  TGI: > 100 µM
M19-MEL melanoma
  TGI: > 100 µM
LXFL 529 NSCLC
  TGI: > 100 µM
SR leukemia
  TGI: > 100 µM
DLD-1 colon
  TGI: > 100 µM
XF 498 CNS
  TGI: > 100 µM

## Cc1cccc(-c2cccc(COCc3cccc(-c4cccc(CO)n4)n3)n2)n1
SR leukemia
  TGI: > 50 µM

## Clc1ccc(/C=c2\nc(-c3ccccc3)n3c2nc2ccccc23)cc1
SR leukemia
  TGI: > 100 µM

## O=C(O)COc1cc(-c2ccccc2F)nc2cc3c(cc12)OCO3
SR leukemia
  TGI: > 100 µM

## CCOC(=O)CC[C@H](NC(=O)c1ccc(CNc2nc3cc(C(F)(F)F)ccc3nc2C(=O)OCC)cc1)C(=O)OCC
SR leukemia
  TGI: > 100 µM

## Nc1nc(N)c2c(CCc3ccc(C(=O)N[C@@H](CCC(=O)O)C(=O)O)cc3)ccnc2n1
SR leukemia
  TGI: > 100 µM

## Clc1ccc(-c2c3nc(c(-c4ccc(Cl)cc4)c4ccc([nH]4)c(-c4ccc(Cl)cc4)c4nc(c(-c5ccc(Cl)cc5)c5ccc2[nH]5)C=C4)C=C3)cc1
SR leukemia
  TGI: > 100 µM

## CC(=O)N(C(=O)CC(=O)NNCc1ccccc1Cl)c1ccc(Cl)cc1
SR leukemia
  TGI: > 10 µM

## O=C1OCCC12CN(Cc1ccccc1)N=N2 (centres undefined)
SR leukemia
  TGI: 74.6 µM

## CC(SC(=S)N(C)C)C(=O)Nc1nnc(-c2ccc(Cl)cc2)o1 (centres undefined)
SR leukemia
  TGI: 19.9 µM

## CCCCCCCCCCCCCCC(C(=O)[O-])[n+]1ccccc1 (centres undefined)
SR leukemia
  TGI: > 100 µM

## CC(=O)NC1C(O)C(O)C(CO)OC1n1nc(SCc2ccccc2)c(=O)[nH]c1=O (centres undefined)
SR leukemia
  TGI: > 100 µM

## O=P1(N(CCCl)CCCl)Oc2c(Cl)cc(Cl)c(Cl)c2Cc2c(Cl)c(Cl)cc(Cl)c2O1
SR leukemia
  TGI: > 100 µM

## Cn1c(=O)c2c(nc(N3CCOCC3)n2CCCNCC(O)c2ccc(O)c(O)c2)n(C)c1=O (centres undefined)
SR leukemia
  TGI: > 100 µM

## CC1OC1P(=O)(O)O (centres undefined)
SR leukemia
  TGI: > 100 µM

## CSC1=C(C(=O)N(COCC[Si](C)(C)C)c2ccccc2Br)CCC(C(C)(C)C)C1 (centres undefined)
SR leukemia
  TGI: 11.7 µM

## CCCCCCCCCCCCCCCCOP(=O)(O)OP(=O)(O)OCC1OC(n2cnc3c(N)ncnc32)C(O)C1O (centres undefined)
SR leukemia
  TGI: 78.3 µM

## COC(=O)c1c(O)ccc2c1c1cc3ccccc3c(O)c1n2Cc1ccccc1Cl
SR leukemia
  TGI: > 100 µM

## CCCCCCCCCCCCCCCCCCNc1ccn(C2OC(COP(=O)(O)OCC(COP(=O)(O)OCC3OC(n4cc(C)c(=O)[nH]c4=O)CC3N=[N+]=[N-])OCCCCCCCCCCCCCCCCCC)C(O)C2O)c(=O)n1 (centres undefined)
SR leukemia
  TGI: > 100 µM

## CN(C)CCn1c2c(c3ccccc31)CCc1ccccc1-2
SR leukemia
  TGI: 27.1 µM

## OC1C2CCC3C2CC(C(O)(c2ccccc2)c2ccccc2)C13 (centres undefined)
SR leukemia
  TGI: 69.7 µM

## Cc1c2ccccc2c(CSC(=N)N)c2ccccc12
SR leukemia
  TGI: 0.0673 µM

## Nc1cc(N2CCOCC2)nc(=O)n1-c1ccccc1
SR leukemia
  TGI: > 100 µM

## COc1ccc(OC)c2sc(N3C(=O)/C(=C/c4ccc(SC)cc4)N=C3c3ccccc3)nc12
SR leukemia
  TGI: 60.6 µM

## CN(C)CCNC(=O)c1ccccc1Nc1c(Cl)cccc1Cl
SNB-78 CNS
  TGI: 33.8 µM
KM20L2 colon
  TGI: 23.4 µM
DMS 273 small cell lung
  TGI: 30.5 µM
M19-MEL melanoma
  TGI: 24.5 µM
LXFL 529 NSCLC
  TGI: 32.4 µM
SR leukemia
  TGI: 30.9 µM
DLD-1 colon
  TGI: 37.1 µM
XF 498 CNS
  TGI: 22 µM

## CCOc1ccccc1NC(=O)CSc1nnc(Cc2ccccc2)o1
HOP-18 NSCLC
  TGI: 54.7 µM
SNB-78 CNS
  TGI: > 100 µM
KM20L2 colon
  TGI: > 100 µM
DMS 114 small cell lung
  TGI: 32.4 µM
DMS 273 small cell lung
  TGI: 60.2 µM
M19-MEL melanoma
  TGI: > 100 µM
LXFL 529 NSCLC
  TGI: 32.1 µM
DLD-1 colon
  TGI: 55.4 µM

## O=S(=O)(Nc1nc2ccccc2nc1Nc1cccc2ccccc12)c1ccccc1
SR leukemia
  TGI: > 100 µM

## CC[C@]1(Cc2ccc(OC)c(OC)c2)C=[N+]([O-])O[C@H](OC2CCCCC2c2ccccc2)[C@@H]1OC(C)=O (some centres undefined)
SR leukemia
  TGI: 91.1 µM

## CC1(C)CC(=O)c2c([nH]c(=S)c(C#N)c2-c2ccc(Br)cc2)C1
SR leukemia
  TGI: 51.7 µM

## NNC(=O)CC(=O)Nc1ccccc1Cl
SR leukemia
  TGI: > 100 µM

## N=C1/C(=C/c2ccco2)C(=O)N=C2SC=NN12
SR leukemia
  TGI: > 100 µM
